Where two headings read alike, the source gives them in different places.
Experiments:
[1] = tested on: Daoy cells; experiment: Apoptosis and cell cycle analysis in Daoy cells; format: cell-based, human; settings: 1 μM
Protocol: (§1) Cell proliferation was determined by a CellTiter 96® Non-Radioactive Cell Proliferation Assay (Promega) kit. Absorbance at 490 nm was measured on a Biotek PowerWave (Biotek, USA) plate scanner to obtain raw data. Average absorbance from triplicate wells were plotted against concentration using GraphPad Prism software v.7.0 (GraphPad software). At the indicated time points, cells were stained using FITC-conjugated Annexin V and Annexin V binding buffer (BD Pharmingen™) according to the manufacturer’s instructions. Annexin V or propidium iodide (PI)-positive cells were analyzed using a Fortessa 5 Flow Cytometer (Becton Dickinson) and data was analyzed using FlowJo® software (Tree Star).
Cell cycle analysis was performed as descried previously. Cells were fixed with 70% ice-cold ethanol and subsequently stained with PI and analyzed using a Fortessa 5 Flow Cytometer (Becton Dickinson) and data was analyzed using FlowJo® software (Tree Star).

[2] = tested on: SHH-MB in Gfap-Cre/SmoM2 (G-Smo) mice; experiment: G-Smo GEM model of SHH-MB: tolerability, pharmacodynamics, survival; format: in vivo
Protocol: (§2) Medulloblastoma-bearing mice were maintained at UNC in accordance with UNC IACUC protocols 19–098 and 21–011 and at QIMR under protocol 1572 and 2324. Specimens were examined by a neuropathologist to verify tumor type and grade.
(§3) Post-natal P10 G-Smo mice were injected IP with CT-179 (80 mg/kg), or POx-Palbo (25 mg/kg, every day from P10 to P13), or combination (CT-179 + POx-Palbo, EOD from P14) or saline control solution and tumors were harvested after 6 or 24 hours. EdU (40 mg/kg) was administered IP 30 minutes before harvest. Tumors were dissociated using the Worthington Papain Dissociation System Kit, then fixed for 15 minutes on ice and washed with FACS Wash buffer (2% FBS in PBS). Fixed cells were stained with fluorophore markers for DNA (FX Cycle stain, Thermo Fisher Scientific), EdU (Click-it Edu Kit, Thermo Fisher Scientific), and phospho-RB content (phospho-RB^Ser807/811, Cell Signalling Technology) as previously described. Stained cells were resuspended in sheath fluid and ran on LSR II flow cytometer for 50000 events at the UNC Flow Cytometry core, using appropriate compensation controls and analyzed using FlowJo® software (Tree Star).
(§4) Brains including tumors from G-Smo mice were harvested, fixed in 4% paraformaldehyde for 48 hours, and embedded in paraffin at the UNC Centre for Gastrointestinal Biology and Disease Histology core. Sections were deparaffinised, and antigen retrieval was performed using a low-pH citric acid-based buffer. Staining was performed and stained slides were digitally scanned using the Leica Biosystems Aperio ImageScope software (12.3.3) by the UNC Translational Pathology Laboratory, as in prior studies. The primary antibodies used were anti-NeuN (Cell Signalling Technology) anti-OLIG2 (Cell Marque) and anti-SOX10 (Cell Signalling Technology) and anti-cleaved caspase-3 (Biocare).
(§5) In vitro experiments - all data represent the means ± standard deviation (SD) or standard error of the mean (SEM) as indicated. Where appropriate, two-tailed Student’s t-test or ANOVA were used to determine the probability of difference (*p < 0.05, ** p < 0.01, ***p < 0.001). In vivo experiments - the log-rank (Mantel-Cox) test was used to determine the survival significance of survival differences between treatment groups (*p < 0.05, ** p < 0.01, ***p < 0.001). Kaplan-Meier survival curves were generated using GraphPad Prism v. 7.0 software (GraphPad software).

[3] = as above; format: in vivo, mice; settings: mouse, in vivo, ip, read-out: maximum tolerated dose (MTD)
Protocol: as §2, §3, §4, §5

[4] = tested on: UW228 MB cell line; experiment: Cell viability, 7 days treatment, UW228; format: cell-based; settings: Homo sapiens, 168 h; UW228, 7 days
Protocol: as §1

[5] = target: KIT (Homo sapiens, UniProt P10721); experiment: Kinase profiling (KINOMEscan / SelectScreen), KIT; format: biochemical; settings: ATP equal to Km
Protocol: Effect of CT-179 on protein kinase activity was evaluated using the Thermofisher Scientific SelectScreen Kinase Profiling Service. Over 400 human protein kinases were tested in the presence of 1 μM final concentration of CT-179 at an ATP concentration equal to the known ATP Km for each kinase. The experiment was done by Curtana Pharmaceuticals. Data is presented as percentage of inhibition of enzyme activity. Software CORAL was used to make the kinome tree, which is available from: http://phanstiel-lab.med.unc.edu/CORAL/.

[6] = 80 mg/kg at P10, P12, P14 and P16, 24 hours after last dose

Chain of KIT (P10721 26-976): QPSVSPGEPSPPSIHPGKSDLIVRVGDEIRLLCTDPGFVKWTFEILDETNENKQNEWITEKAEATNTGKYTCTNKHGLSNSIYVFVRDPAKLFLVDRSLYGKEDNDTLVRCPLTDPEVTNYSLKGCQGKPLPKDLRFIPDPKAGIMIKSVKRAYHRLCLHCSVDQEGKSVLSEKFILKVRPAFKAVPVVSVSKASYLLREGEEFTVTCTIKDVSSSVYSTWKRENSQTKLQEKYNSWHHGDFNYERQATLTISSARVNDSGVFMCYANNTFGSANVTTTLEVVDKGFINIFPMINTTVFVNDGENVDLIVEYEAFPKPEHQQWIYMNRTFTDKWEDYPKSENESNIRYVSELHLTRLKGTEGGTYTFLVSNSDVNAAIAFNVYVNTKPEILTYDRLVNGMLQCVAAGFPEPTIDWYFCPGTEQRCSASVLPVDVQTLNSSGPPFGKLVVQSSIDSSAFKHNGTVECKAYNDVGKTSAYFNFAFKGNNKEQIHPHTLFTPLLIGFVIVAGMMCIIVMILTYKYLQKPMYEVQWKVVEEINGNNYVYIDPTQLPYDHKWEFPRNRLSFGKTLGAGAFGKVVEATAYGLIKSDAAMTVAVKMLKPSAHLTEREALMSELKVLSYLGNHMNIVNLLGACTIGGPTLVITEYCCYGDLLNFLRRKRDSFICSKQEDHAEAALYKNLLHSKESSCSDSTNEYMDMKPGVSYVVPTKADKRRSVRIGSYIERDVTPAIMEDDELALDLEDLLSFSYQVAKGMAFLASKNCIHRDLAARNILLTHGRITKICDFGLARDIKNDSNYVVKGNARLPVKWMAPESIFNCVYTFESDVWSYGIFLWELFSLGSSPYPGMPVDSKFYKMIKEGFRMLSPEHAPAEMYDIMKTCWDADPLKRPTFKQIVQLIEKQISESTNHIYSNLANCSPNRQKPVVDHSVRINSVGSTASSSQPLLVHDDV

## Cc1cc(NCCCN(C)C)nc(NC(=O)Nc2ccc(Cl)c(Cl)c2)n1 [CT-179]
[1]
  apoptosis (cleaved CASPASE-3, Annexin V): increased apoptosis
[1]; 24 hours, single therapy
  cell cycle effect: G2/M phase arrest
[2]; [6]
  p-OLIG2 in tumors, western blot: decreased p-OLIG2
  p-RB in tumors, western blot: reduced p-RB
[2]; IP 80 mg/kg EOD, 80 mg/kg every three days, or 100 mg/kg every three days, from P10
  EFS versus control: significantly improved EFS
[2]; administered every three days
  BLI signal in G-Smo Gli-luc mice: dose-dependent decrease in BLI signal
[3]; EOD
  MTD: 80 mg/kg
[3]; every three days
  MTD: 100 mg/kg
[4]
  IC50: 285 nM
[5]
  inhibition at 1 µM: 66%
